Test system: Bacteria mixture 2 (alkaliphilic bacteria of the Nesterenkonia & Alkalibacterium genus)
Experiment: Repetitive stress test of paints with bacteria mixture 2, semiquantitative evaluation (examples 4 and 5)
Type: cell-based
Design: key to Bacterial growth after inoculation: 0: No growth; Minimal growth, 1 to 10 colonies visible over the entire streak; 2: Light growth, maximum 100 colonies; Moderate growth, maximum 300 to 400 colonies; Uniform growth, >400 colonies, single colonies still clearly recognizable; 5: Heavy growth, too many colonies to count, but no growth over the entire streak; 6: Full growth, barely any single colonies still apparent, growth over the entire streak
Text: Paints 1 to 3 were mixed and homogenized with various concentrations of the guanidinium salts to be tested.
The batches obtained of the paint thus prepared were inoculated repeatedly with a mixture of different wild-type bacterial strains that are of practical relevance with regard to contamination. These bacteria had previously been isolated from commercial emulsion paints containing conventional preservatives (bacteria mixture 1, Pseudomonas genus), which are microbially contaminated in practice, and commercial so-called preservative-free alkaline emulsion paints (bacteria mixture 2, alkaliphilic bacteria of the Nesterenkonia & Alkalibacterium genus), which are microbially contaminated in practice.
• Nesterenkonia sp. DSM 108520 • Nesterenkonia sp. DSM 108521 • Alkalibacterium pelagium DSM 108522 • Nesterenkonia massiliensis DSM 110679 • Nesterenkonia sp. DSM 108519
The inoculum was added to the respective sample in each inoculation at 2% (v/w) as a fresh cell suspension in a physiological saline solution (0.9% NaCl). The cell count of the added inoculum in example 1 was 10^5/ml, in examples 2 to 5 10^9/ml, and in example 6 10^6/ml, each in equal portions consisting of the individual bacterial strains. The cell suspension was produced by growing the individual bacteria at 30° C. for 24 h in liquid culture on a shaker. The medium used to grow the bacteria from bacteria mixture 1 was Müller-Hinton liquid medium. Bacteria from bacteria mixture 2 were grown in Müller-Hinton liquid medium that had been adjusted to pH 9.5-9.7 with an alkaline buffer solution beforehand. After growing, the individual liquid cultures were centrifuged, and the cells were resuspended in physiological saline solution. In order to adjust the mixture to the desired cell count, the individual bacteria suspensions, if necessary, were diluted accordingly before being combined with saline solution. The cell count of the inoculum was determined in each case by chamber counting.
In examples 2 to 6, what is called a repetitive stress test with bacteria was conducted by inoculating the samples at particular time intervals repeatedly with a bacteria suspension having a cell count of 10^9/ml (2% v/w) and monitoring the evolution of the bacteria by a semiquantitative evaluation method. After each inoculation, the samples were incubated at 30° C. for 6 days (bacteria mixture 1 and 3) or 7 and 14 days (bacteria mixture 2), and after these periods bacterial infestation was evaluated semiquantitatively in each case. For this purpose, an aliquot was taken from each sample after homogenization using a sterile plastic inoculation loop (10 μl) and streaked evenly on agar plates (bacteria mixture 1 and 3 on tryptic soy agar, bacteria mixture 2 on DSMZ 31 alkaline nutrient agar). The streaked agar plates were then incubated at 30° C. for 48 h (bacteria mixture 1 and 3) or 5 to 7 days (bacteria mixture 2). After incubation, the bacterial colonies grown on the agar plates were visually evaluated and quantified according to the following scheme:
A total of 3 inoculation cycles was performed in each repetitive stress test.
Inoculation 2% (w/v) with Bacteria Mixture 2, 10^9 CFU/ml

N=C(N)N.N=C(N)N.O=C(O)O [guanidine carbonate]
Bacterial growth after inoculation (Table 4, Paint 2, +0.1% guanidine carbonate (656 ppm guanidine), pH 8.9, 2. inoculation, 14 d): 4 (Uniform growth, >400 colonies, single colonies still clearly recognizable)
Bacterial growth after inoculation (Table 4, Paint 2, +0.1% guanidine carbonate (656 ppm guanidine), pH 8.9, 3. inoculation, 7 d): 6/6
Bacterial growth after inoculation (Table 4, Paint 2, +0.1% guanidine carbonate (656 ppm guanidine), pH 8.9, 3. inoculation, 14 d): 6/6
Bacterial growth after inoculation (Table 4, Paint 2, +0.15% guanidine carbonate (984 ppm guanidine), pH 9.0, 1. inoculation, 7 d): 0/0
Bacterial growth after inoculation (Table 4, Paint 2, +0.15% guanidine carbonate (984 ppm guanidine), pH 9.0, 1. inoculation, 14 d): 0/0
Bacterial growth after inoculation (Table 4, Paint 2, +0.15% guanidine carbonate (984 ppm guanidine), pH 9.0, 2. inoculation, 7 d): 2 (Light growth, maximum 100 colonies)
Bacterial growth after inoculation (Table 4, Paint 2, +0.15% guanidine carbonate (984 ppm guanidine), pH 9.0, 2. inoculation, 14 d): 1 (Minimal growth, 1 to 10 colonies visible over the entire streak)
Bacterial growth after inoculation (Table 4, Paint 2, +0.15% guanidine carbonate (984 ppm guanidine), pH 9.0, 3. inoculation, 7 d): 6/6
Bacterial growth after inoculation (Table 4, Paint 2, +0.15% guanidine carbonate (984 ppm guanidine), pH 9.0, 3. inoculation, 14 d): 6/6
Bacterial growth after inoculation (Table 4, Paint 2, +0.2% guanidine carbonate (1312 ppm guanidine), pH 9.1, 1. inoculation, 7 d): 0/0
Bacterial growth after inoculation (Table 4, Paint 2, +0.2% guanidine carbonate (1312 ppm guanidine), pH 9.1, 1. inoculation, 14 d): 0/0
Bacterial growth after inoculation (Table 4, Paint 2, +0.2% guanidine carbonate (1312 ppm guanidine), pH 9.1, 2. inoculation, 7 d): 0/0
Bacterial growth after inoculation (Table 4, Paint 2, +0.2% guanidine carbonate (1312 ppm guanidine), pH 9.1, 2. inoculation, 14 d): 0/0
Bacterial growth after inoculation (Table 4, Paint 2, +0.2% guanidine carbonate (1312 ppm guanidine), pH 9.1, 3. inoculation, 7 d): 6/6
Bacterial growth after inoculation (Table 4, Paint 2, +0.2% guanidine carbonate (1312 ppm guanidine), pH 9.1, 3. inoculation, 14 d): 6/6
Bacterial growth after inoculation (Table 4, Paint 2, +0.25% guanidine carbonate (1640 ppm guanidine), pH 9.1, 1. inoculation, 7 d): 0/0
Bacterial growth after inoculation (Table 4, Paint 2, +0.25% guanidine carbonate (1640 ppm guanidine), pH 9.1, 1. inoculation, 14 d): 0/0
Bacterial growth after inoculation (Table 4, Paint 2, +0.25% guanidine carbonate (1640 ppm guanidine), pH 9.1, 2. inoculation, 7 d): 0/0
Bacterial growth after inoculation (Table 4, Paint 2, +0.25% guanidine carbonate (1640 ppm guanidine), pH 9.1, 2. inoculation, 14 d): 0/0
Bacterial growth after inoculation (Table 4, Paint 2, +0.25% guanidine carbonate (1640 ppm guanidine), pH 9.1, 3. inoculation, 7 d): 0/0
Bacterial growth after inoculation (Table 4, Paint 2, +0.25% guanidine carbonate (1640 ppm guanidine), pH 9.1, 3. inoculation, 14 d): 0/0
Bacterial growth after inoculation (Table 4, Paint 2, +0.3% guanidine carbonate (1968 ppm guanidine), pH 9.2, 1. inoculation, 7 d): 0/0
Bacterial growth after inoculation (Table 4, Paint 2, +0.3% guanidine carbonate (1968 ppm guanidine), pH 9.2, 1. inoculation, 14 d): 0/0
Bacterial growth after inoculation (Table 4, Paint 2, +0.3% guanidine carbonate (1968 ppm guanidine), pH 9.2, 2. inoculation, 7 d): 0/0
Bacterial growth after inoculation (Table 4, Paint 2, +0.3% guanidine carbonate (1968 ppm guanidine), pH 9.2, 2. inoculation, 14 d): 0/0
Bacterial growth after inoculation (Table 4, Paint 2, +0.3% guanidine carbonate (1968 ppm guanidine), pH 9.2, 3. inoculation, 7 d): 0/0
Bacterial growth after inoculation (Table 4, Paint 2, +0.3% guanidine carbonate (1968 ppm guanidine), pH 9.2, 3. inoculation, 14 d): 0/0
Bacterial growth after inoculation (Table 4, Paint 2, +0.4% guanidine carbonate (2624 ppm guanidine), pH 9.3, 1. inoculation, 7 d): 0/0
Bacterial growth after inoculation (Table 4, Paint 2, +0.4% guanidine carbonate (2624 ppm guanidine), pH 9.3, 1. inoculation, 14 d): 0/0
Bacterial growth after inoculation (Table 4, Paint 2, +0.4% guanidine carbonate (2624 ppm guanidine), pH 9.3, 2. inoculation, 7 d): 0/0
Bacterial growth after inoculation (Table 4, Paint 2, +0.4% guanidine carbonate (2624 ppm guanidine), pH 9.3, 2. inoculation, 14 d): 0/0
Bacterial growth after inoculation (Table 4, Paint 2, +0.4% guanidine carbonate (2624 ppm guanidine), pH 9.3, 3. inoculation, 7 d): 0/0
Bacterial growth after inoculation (Table 4, Paint 2, +0.4% guanidine carbonate (2624 ppm guanidine), pH 9.3, 3. inoculation, 14 d): 0/0
Bacterial growth after inoculation (Table 4, Paint 2, +0.5% guanidine carbonate (3280 ppm guanidine), pH 9.4, 1. inoculation, 7 d): 0/0
Bacterial growth after inoculation (Table 4, Paint 2, +0.5% guanidine carbonate (3280 ppm guanidine), pH 9.4, 1. inoculation, 14 d): 0/0
Bacterial growth after inoculation (Table 4, Paint 2, +0.5% guanidine carbonate (3280 ppm guanidine), pH 9.4, 2. inoculation, 7 d): 0/0
Bacterial growth after inoculation (Table 4, Paint 2, +0.5% guanidine carbonate (3280 ppm guanidine), pH 9.4, 2. inoculation, 14 d): 0/0
Bacterial growth after inoculation (Table 4, Paint 2, +0.5% guanidine carbonate (3280 ppm guanidine), pH 9.4, 3. inoculation, 7 d): 0/0
Bacterial growth after inoculation (Table 4, Paint 2, +0.5% guanidine carbonate (3280 ppm guanidine), pH 9.4, 3. inoculation, 14 d): 0/0
Bacterial growth after inoculation (Table 4, Paint 2, +1.0% guanidine carbonate (6560 ppm guanidine), pH 9.8, 1. inoculation, 7 d): 0/0
Bacterial growth after inoculation (Table 4, Paint 2, +1.0% guanidine carbonate (6560 ppm guanidine), pH 9.8, 1. inoculation, 14 d): 0/0
Bacterial growth after inoculation (Table 4, Paint 2, +1.0% guanidine carbonate (6560 ppm guanidine), pH 9.8, 2. inoculation, 7 d): 0/0
Bacterial growth after inoculation (Table 4, Paint 2, +1.0% guanidine carbonate (6560 ppm guanidine), pH 9.8, 2. inoculation, 14 d): 0/0
Bacterial growth after inoculation (Table 4, Paint 2, +1.0% guanidine carbonate (6560 ppm guanidine), pH 9.8, 3. inoculation, 7 d): 0/0
Bacterial growth after inoculation (Table 4, Paint 2, +1.0% guanidine carbonate (6560 ppm guanidine), pH 9.8, 3. inoculation, 14 d): 0/0
Bacterial growth after inoculation (Table 5, Paint 3, +0.15% guanidine carbonate (984 ppm guanidine), pH 11.2, 1. inoculation, 7 d): 3 (Moderate growth, maximum 300 to 400 colonies)
Bacterial growth after inoculation (Table 5, Paint 3, +0.15% guanidine carbonate (984 ppm guanidine), pH 11.2, 1. inoculation, 14 d): 0
Bacterial growth after inoculation (Table 5, Paint 3, +0.15% guanidine carbonate (984 ppm guanidine), pH 11.2, 2. inoculation, 7 d): 3 (Moderate growth, maximum 300 to 400 colonies)
Bacterial growth after inoculation (Table 5, Paint 3, +0.15% guanidine carbonate (984 ppm guanidine), pH 11.2, 2. inoculation, 14 d): 0
Stabilization of the paint against microbial infestation (table 4, addition of 0.1% by weight to paint 1 having a pH of 9.1 or greater): distinct stabilization
Stabilization of the paint against microbial infestation (table 4, addition of 0.1% by weight to paint 2 having a pH of 8.9 or greater): distinct stabilization
Stabilization of the paint against microbial infestation (table 5, paint having a pH of pH 11.2, addition of 0.1% by weight): distinct stabilization

From patent US20260265538A1, “Aqueous Industrial Product Stabilized Against Microbial Contamination” (Thor GmbH, priority 2023, published 2026)
